Test results taken from ChEMBL document CHEMBL1201862, “PubChem BioAssay data set” (2004).
Calls of active or inactive are those of the source.

Columns and labels:
[1] = A small molecule screen for inhibitors of the PhoP region in Salmonella typhi (4) using purified and synthesized compounds. [Related pubchem assays (depositor defined):AID1850, AID1864, AID1985, AID2252, AID2384, AID2612, AID2811, AID434995]; format: functional
[2] = target: Ion channel NompC (Danio rerio, UniProt Q7T1G6); test: Dose response cell-based high-throughput screening assay for agonists of the transient receptor potential channel N1 (TRPN1). [Related pubchem assays (depositor defined):AID1424, AID1448]; format: functional
Ion channel NompC, sequence (Q7T1G6 whole entry): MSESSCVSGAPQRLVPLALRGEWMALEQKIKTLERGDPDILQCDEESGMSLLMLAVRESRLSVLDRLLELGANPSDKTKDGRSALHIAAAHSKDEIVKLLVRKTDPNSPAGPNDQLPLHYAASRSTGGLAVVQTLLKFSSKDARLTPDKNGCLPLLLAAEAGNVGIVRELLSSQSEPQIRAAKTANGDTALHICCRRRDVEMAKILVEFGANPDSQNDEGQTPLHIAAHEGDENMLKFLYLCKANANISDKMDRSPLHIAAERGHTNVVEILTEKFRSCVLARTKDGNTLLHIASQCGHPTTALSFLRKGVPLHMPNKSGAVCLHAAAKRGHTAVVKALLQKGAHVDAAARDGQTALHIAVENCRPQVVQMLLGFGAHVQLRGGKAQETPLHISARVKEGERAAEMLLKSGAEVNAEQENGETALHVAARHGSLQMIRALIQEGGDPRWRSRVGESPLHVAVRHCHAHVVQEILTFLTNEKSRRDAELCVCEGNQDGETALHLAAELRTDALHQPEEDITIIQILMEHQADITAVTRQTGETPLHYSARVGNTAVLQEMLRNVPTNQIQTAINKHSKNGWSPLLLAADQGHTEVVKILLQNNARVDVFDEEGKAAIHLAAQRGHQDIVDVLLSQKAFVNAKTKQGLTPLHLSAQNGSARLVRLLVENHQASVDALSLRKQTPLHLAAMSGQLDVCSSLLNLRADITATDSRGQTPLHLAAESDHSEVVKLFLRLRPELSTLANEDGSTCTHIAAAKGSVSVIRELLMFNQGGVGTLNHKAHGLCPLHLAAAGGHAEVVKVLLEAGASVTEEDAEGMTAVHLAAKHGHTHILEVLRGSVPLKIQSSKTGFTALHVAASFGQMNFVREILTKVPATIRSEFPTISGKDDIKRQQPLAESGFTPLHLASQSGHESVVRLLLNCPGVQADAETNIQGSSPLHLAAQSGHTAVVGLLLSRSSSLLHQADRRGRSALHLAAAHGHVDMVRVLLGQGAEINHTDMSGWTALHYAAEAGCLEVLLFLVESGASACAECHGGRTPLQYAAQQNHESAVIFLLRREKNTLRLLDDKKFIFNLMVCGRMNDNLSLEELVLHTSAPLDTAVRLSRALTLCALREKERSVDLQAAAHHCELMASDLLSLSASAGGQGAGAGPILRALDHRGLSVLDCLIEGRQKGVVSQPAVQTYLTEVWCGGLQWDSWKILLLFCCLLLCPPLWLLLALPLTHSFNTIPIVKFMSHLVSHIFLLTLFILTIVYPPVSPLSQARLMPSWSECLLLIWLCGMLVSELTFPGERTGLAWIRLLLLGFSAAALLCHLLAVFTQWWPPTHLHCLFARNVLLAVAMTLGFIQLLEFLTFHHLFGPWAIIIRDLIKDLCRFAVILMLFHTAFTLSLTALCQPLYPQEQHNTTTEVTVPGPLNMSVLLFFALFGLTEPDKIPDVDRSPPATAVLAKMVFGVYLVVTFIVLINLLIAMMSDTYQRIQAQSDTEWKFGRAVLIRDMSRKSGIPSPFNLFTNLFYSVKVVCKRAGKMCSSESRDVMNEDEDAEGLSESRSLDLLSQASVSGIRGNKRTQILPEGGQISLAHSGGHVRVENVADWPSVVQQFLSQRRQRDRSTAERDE

[3] = growth suppression of PTEN-null colon cells, dose response, cell-based, HCT116 PTEN knockout (AID 1047); format: functional;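 further: HCT116 colon tumor cells with PTEN knocked out; cells exposed to compound for 60 hours before readout; potency for loss of cell viability measured by luminescence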
[4] = target: Mucolipin-3 (Homo sapiens, UniProt Q8TDD5); test: Fluorescence counterscreen assay for […] agonists: dose response cell-based high-throughput screening assay to identify agonists of the transient receptor potential channel ML3 (TRPML3). [Related pubchem assays: 1424, 1448 ]; format: functional
Mucolipin-3, sequence (Q8TDD5 whole entry): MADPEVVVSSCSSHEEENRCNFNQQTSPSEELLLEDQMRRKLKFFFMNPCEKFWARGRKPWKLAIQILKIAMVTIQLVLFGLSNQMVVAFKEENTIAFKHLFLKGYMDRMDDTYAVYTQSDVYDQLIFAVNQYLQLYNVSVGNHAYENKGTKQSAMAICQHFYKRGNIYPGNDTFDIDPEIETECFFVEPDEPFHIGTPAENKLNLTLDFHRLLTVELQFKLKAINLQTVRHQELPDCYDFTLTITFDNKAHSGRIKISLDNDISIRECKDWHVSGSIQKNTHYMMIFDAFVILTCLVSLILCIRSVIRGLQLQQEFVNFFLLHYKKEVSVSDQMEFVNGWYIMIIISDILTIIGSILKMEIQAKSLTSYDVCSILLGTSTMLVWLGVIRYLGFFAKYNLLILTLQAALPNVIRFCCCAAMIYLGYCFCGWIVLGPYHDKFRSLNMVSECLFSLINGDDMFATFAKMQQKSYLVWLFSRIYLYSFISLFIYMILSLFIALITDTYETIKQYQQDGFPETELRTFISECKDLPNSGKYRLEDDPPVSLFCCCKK

[5] = growth suppression of beta-catenin-knockout colon cells, dose response, cell-based, HCT116, human colon tumor (AID 1045); format: functional;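 further: HCT116 colon tumor cells with beta catenin knocked out; cells exposed to compound for 60 hours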
[6] = tested on: HEK293; test: inhibitors of LMP1-driven NF-kB reporter, dose response, cell-based, HEK293, luciferase, cherry-pick (AID 588343); format: functional; conditions: Homo sapiens
[7] = target: T1, High affinity choline transporter 1 (Homo sapiens, UniProt Q9GZV3); test: CHT inhibitors, dose response, cell-based, 5-point CRC, membrane potential dye (AID 504840); format: functional
T1 sequence (Q9GZV3 whole entry): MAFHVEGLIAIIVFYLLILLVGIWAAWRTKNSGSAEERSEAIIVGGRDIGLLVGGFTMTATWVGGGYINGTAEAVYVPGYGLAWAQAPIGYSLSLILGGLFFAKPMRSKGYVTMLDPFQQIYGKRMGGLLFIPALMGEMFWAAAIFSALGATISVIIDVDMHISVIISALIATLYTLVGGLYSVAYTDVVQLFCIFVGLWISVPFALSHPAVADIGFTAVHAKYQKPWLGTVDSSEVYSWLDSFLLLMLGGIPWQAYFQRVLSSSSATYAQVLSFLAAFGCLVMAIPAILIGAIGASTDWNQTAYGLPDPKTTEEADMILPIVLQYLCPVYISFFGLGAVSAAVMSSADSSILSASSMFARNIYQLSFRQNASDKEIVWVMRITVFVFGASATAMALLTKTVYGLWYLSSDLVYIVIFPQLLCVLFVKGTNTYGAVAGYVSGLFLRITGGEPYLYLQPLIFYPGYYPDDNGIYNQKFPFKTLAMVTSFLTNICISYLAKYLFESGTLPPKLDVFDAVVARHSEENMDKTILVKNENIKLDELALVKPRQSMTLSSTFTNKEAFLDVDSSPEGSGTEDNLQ

[8] = target: Tyrosine-protein phosphatase non-receptor type 12 (Homo sapiens, UniProt Q05209); test: SAR Selectivity Analysis of small molecule inhibitors of PEST using pCAP in a fluorescence assay. [Related pubchem assays (depositor defined):AID1779, AID1784, AID2135]; format: functional
Tyrosine-protein phosphatase non-receptor type 12, sequence (Q05209 whole entry): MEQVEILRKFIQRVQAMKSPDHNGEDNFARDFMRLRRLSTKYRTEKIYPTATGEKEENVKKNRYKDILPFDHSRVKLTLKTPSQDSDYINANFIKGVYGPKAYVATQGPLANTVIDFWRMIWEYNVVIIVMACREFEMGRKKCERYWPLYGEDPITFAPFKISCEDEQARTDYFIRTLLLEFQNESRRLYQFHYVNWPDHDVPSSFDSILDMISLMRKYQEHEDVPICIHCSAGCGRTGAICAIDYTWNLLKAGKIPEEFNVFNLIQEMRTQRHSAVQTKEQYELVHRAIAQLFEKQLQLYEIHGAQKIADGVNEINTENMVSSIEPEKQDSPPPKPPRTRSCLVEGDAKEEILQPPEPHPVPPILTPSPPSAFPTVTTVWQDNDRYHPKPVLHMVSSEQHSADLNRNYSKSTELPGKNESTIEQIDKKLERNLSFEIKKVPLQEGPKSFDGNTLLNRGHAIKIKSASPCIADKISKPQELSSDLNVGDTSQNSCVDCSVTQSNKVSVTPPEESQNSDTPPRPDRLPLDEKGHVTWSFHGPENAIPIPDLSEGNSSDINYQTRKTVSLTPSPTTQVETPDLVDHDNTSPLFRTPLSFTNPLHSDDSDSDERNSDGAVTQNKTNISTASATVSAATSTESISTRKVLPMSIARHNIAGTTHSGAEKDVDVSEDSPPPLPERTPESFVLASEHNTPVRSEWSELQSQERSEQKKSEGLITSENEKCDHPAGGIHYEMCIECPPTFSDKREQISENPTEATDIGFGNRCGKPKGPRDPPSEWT

[9] = target: T2, Dual specificity protein phosphatase 3 (Homo sapiens, UniProt P51452); test: SAR VHR1 absorbance Assay for In Vitro dose response studies. [Related pubchem assays (depositor defined):AID1654, AID1661, AID1878, AID1992, AID2004]
T2 sequence (P51452 whole entry): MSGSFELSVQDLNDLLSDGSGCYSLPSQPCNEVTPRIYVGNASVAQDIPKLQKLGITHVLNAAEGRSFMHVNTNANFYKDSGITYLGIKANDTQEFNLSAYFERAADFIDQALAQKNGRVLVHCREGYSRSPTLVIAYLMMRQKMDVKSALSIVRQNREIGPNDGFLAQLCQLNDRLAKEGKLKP

[10] = target: T2, Dual specificity protein phosphatase 3; test: SAR VHR1 Fluorescent Assay for In Vitro dose response studies. [Related pubchem assays (depositor defined):AID1654, AID1661, AID1878, AID1992, AID2004, AID2070, AID2085]; format: functional
[11] = target: T3, Tyrosine-protein phosphatase non-receptor type 22 (Homo sapiens, UniProt Q9Y2R2); test: SAR LYP1 Fluorescent Assay using OMFP substrate for In Vitro dose response studies - Set 3. [Related pubchem assays (depositor defined):AID1779, AID1784, AID2140, AID2686]; format: functional
T3 sequence (Q9Y2R2 whole entry): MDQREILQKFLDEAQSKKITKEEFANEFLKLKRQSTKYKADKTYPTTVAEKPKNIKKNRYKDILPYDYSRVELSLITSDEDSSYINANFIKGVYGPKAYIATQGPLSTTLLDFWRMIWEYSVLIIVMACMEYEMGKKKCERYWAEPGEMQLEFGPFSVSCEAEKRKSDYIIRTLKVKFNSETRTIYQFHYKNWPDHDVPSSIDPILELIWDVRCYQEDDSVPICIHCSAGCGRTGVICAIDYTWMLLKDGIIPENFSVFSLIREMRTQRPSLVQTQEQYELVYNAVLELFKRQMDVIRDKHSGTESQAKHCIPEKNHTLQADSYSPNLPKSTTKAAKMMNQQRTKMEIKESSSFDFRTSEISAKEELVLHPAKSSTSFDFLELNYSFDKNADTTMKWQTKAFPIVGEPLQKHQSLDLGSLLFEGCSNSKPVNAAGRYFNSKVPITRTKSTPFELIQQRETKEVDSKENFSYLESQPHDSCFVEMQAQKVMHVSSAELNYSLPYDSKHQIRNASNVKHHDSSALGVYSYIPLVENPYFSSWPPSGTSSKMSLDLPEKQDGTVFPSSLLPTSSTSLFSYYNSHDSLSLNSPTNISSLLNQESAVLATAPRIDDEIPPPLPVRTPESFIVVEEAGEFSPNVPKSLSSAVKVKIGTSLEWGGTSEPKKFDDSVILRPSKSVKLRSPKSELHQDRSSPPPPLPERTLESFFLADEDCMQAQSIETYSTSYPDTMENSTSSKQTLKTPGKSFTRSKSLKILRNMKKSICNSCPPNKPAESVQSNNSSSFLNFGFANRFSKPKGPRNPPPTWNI

[12] = target: T4, Tyrosine-protein phosphatase non-receptor type 7 (Homo sapiens, UniProt P35236); test: redox-dependent HePTP inhibition, mechanism study, biochemical, fluorescence (AID 2068); format: functional
T4 sequence (P35236 whole entry): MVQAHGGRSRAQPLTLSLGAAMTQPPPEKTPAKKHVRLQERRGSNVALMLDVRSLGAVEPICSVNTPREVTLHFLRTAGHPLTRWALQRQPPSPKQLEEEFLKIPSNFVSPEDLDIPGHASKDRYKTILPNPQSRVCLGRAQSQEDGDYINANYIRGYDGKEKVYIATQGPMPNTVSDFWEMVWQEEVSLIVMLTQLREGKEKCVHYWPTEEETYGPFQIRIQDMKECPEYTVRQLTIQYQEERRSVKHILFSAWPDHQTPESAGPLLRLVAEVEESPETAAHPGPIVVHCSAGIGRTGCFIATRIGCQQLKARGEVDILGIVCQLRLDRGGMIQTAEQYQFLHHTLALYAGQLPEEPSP

[13] = target: T3, Tyrosine-protein phosphatase non-receptor type 22; test: LYP (PTPN22) phosphatase inhibitor potency, SAR follow-up, biochemical, pCAP fluorogenic substrate, fluorescence, set 3 (AID 449727); format: functional
[14] = target: T5, Dual specificity protein phosphatase 6 (Rattus norvegicus, UniProt Q64346); format: functional;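 further: confirmatory in vitro dose-response testing of MKP-3 inhibition; recombinant His-tagged MKP-3 made in E. coli BL21 with OMFP substrate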
T5 sequence (Q64346 whole entry): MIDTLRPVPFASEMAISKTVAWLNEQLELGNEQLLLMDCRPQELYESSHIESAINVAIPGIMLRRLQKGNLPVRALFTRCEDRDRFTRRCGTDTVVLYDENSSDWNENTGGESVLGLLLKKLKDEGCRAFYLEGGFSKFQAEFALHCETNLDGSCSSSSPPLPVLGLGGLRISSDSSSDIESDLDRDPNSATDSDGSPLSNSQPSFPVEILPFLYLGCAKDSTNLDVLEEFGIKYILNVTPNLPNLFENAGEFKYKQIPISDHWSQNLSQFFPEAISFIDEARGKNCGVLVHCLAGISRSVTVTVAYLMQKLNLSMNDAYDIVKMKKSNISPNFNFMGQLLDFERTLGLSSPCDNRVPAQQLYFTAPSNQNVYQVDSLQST

[15] = target: T6, G-protein coupled receptor 55 (Homo sapiens, UniProt Q9Y2T6); test: GPR55 antagonists blocking LPI-driven arrestin recruitment, primary screen, imaging, U2OS, beta-arrestin-GFP, LPI agonist (AID 2013); format: functional;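 further: antagonist potency measured as reduced agonist-driven arrestin aggregation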
T6 sequence (Q9Y2T6 whole entry): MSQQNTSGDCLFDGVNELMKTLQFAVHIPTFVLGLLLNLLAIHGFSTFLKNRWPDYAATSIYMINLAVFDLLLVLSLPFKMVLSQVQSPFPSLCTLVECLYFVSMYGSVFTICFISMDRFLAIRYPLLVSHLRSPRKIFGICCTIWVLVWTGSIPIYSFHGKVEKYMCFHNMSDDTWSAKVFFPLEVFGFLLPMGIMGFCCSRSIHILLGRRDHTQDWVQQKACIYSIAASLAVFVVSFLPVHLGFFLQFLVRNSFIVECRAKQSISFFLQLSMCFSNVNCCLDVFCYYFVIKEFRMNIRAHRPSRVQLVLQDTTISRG

[16] = target: T7, Cannabinoid receptor 1 (Homo sapiens, UniProt P21554); test: SAR analysis of antagonists of the Cannabinoid Receptor 1 using an Image-Based Assay - Set 2. [Related pubchem assays (depositor defined):AID2013, AID2026]; format: functional
T7 sequence (P21554 whole entry): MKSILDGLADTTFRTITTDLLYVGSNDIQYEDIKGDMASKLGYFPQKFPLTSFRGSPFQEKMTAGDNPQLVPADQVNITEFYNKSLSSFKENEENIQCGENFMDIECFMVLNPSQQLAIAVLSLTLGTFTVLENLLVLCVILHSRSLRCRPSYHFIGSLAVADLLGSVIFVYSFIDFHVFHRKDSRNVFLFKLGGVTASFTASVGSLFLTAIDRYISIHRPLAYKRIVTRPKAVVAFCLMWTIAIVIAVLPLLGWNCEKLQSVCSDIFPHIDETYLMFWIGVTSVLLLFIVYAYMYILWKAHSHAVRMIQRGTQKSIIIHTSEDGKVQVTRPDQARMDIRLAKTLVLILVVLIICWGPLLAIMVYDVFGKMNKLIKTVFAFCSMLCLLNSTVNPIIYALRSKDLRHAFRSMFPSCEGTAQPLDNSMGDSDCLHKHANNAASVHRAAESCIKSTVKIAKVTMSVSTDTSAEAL

[17] = target: T8, G-protein coupled receptor 35 (Homo sapiens, UniProt Q9HC97); test: SAR analysis of Agonists of the GPR35 Receptor using an Image-Based Assay - Set 2. [Related pubchem assays (depositor defined):AID2013, AID2026]; format: functional
T8 sequence (Q9HC97 whole entry): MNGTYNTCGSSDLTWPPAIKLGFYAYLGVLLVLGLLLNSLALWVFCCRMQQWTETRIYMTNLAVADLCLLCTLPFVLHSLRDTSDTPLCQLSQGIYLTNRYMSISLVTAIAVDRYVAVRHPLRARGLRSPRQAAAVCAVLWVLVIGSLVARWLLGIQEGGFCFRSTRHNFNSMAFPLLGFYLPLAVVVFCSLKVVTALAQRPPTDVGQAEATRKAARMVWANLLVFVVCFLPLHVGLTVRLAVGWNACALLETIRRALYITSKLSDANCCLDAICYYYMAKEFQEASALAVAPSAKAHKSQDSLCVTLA

[18] = target: T9, Cannabinoid receptor 2 (Homo sapiens, UniProt P34972); test: SAR analysis of antagonists of the Cannabinoid Receptor 2 using an Image-Based Assay. [Related pubchem assays (depositor defined):AID2013, AID2026]; format: functional
T9 sequence (P34972 whole entry): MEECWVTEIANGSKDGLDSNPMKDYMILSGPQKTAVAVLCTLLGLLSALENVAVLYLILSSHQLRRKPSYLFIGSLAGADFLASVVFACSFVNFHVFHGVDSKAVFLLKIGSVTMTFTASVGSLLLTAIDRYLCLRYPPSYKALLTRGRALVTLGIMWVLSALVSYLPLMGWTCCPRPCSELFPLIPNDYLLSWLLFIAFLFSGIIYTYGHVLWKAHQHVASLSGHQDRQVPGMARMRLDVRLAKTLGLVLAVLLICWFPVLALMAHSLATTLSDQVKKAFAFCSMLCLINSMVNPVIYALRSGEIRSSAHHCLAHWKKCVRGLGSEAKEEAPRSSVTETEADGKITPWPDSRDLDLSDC

[19] = target: T7, Cannabinoid receptor 1; test: SAR analysis of agonists of the Cannabinoid Receptor 1 using an Image-Based Assay - Set 2. [Related pubchem assays (depositor defined):AID2013, AID2026]; format: functional
[20] = target: T8, G-protein coupled receptor 35; test: SAR analysis of Antagonists of the GPR35 Receptor using an Image-Based Assay - Set 3. [Related pubchem assays (depositor defined):AID2013, AID2026]; format: functional
[21] = target: T6, G-protein coupled receptor 55; test: GPR55 antagonist potency of analogs, SAR follow-up, imaging, U2OS, beta-arrestin-GFP, LPI agonist, set 2 (AID 2820); format: functional
[22] = target: T9, Cannabinoid receptor 2; test: SAR analysis of agonists of the Cannabinoid Receptor 2 using an Image-Based Assay. [Related pubchem assays (depositor defined):AID2013, AID2026]; format: functional

## COc1cccc(CNC(=S)Nc2ccncc2)c1
[1]
  IC50: 164 µM (active)

## CCCCN=C(S)Nc1ccc([N+](=O)[O-])cc1
[2]
  EC50: > 29.9 µM (inactive)
[3]
  EC50: 19.6 µM (active)
[4]
  EC50: > 29.9 µM (not active)
[5]
  EC50: 20.7 µM (active)
[6]
  AC50: 105 µM (active)
[7]
  IC50: 12 µM (active)

## O=C(COc1c(Cl)cccc1Cl)Oc1ccc([N+](=O)[O-])cc1
[8]
  IC50: 42.5 µM (active)
[9]
  IC50: > 100 µM (inactive)
[10]
  IC50: > 99 µM (inactive)
[11]
  IC50: > 100 µM (inactive)
[12]
  IC50: 15.1 µM (active)
[13]
  IC50: 63.7 µM (active)
[14]
  IC50: > 99 µM (inactive)

## CCCCC1(Cc2cccc([N+](=O)[O-])c2)C(=O)N(c2ccccc2)N(c2ccccc2)C1=O
[15]
  IC50: 0.552 µM (active)
[16]
  IC50: 11 µM (inactive)
[17]
  EC50: > 32 µM (inactive)
[18]
  IC50: > 32 µM (inactive)
[19]
  EC50: > 32 µM (inactive)
[20]
  IC50: > 32 µM (inactive)
[21]
  IC50: 0.577 µM (active)
[22]
  EC50: > 32 µM (inactive)
